US20160303133A1, “TREATMENT OF GASTROINTESTINAL AND OTHER DISORDERS” (NUMEDII, INC., priority 2013, published 2016)

Tests used:
[1] = system: TNBS (2,4,6-trinitrobenzenesulfonic acid) rat colitis model; test: Prophylactic efficacy study in TNBS rat colitis model, colon histopathology (Example 3); format: in vivo, Sprague-Dawley rats
Method: Prophylactic efficacy study in TNBS (2,4,6-trinitrobenzenesulfonic acid) rat colitis model.
Preparation of doses: For Groups 1, 2: 50 ml 0.1M acetic acid and 30 ml sterile water were combined. The pH was adjusted from 4.45 to 6.7 with 0.1N NaOH. The stir bar was removed and the solution made up to 100 ml with sterile water. For Group 3, 133.9 mg prednisolone 21-hemisuccinate sodium salt was dissolved in 100 ml de-ionized water to prepare a 1 mg/ml solution. For Group 4, 600 mg Nadolol was dissolved in 50 ml 0.1M acetic acid and 30 ml sterile water. The pH was adjusted from 4.45 to 6.7 with 0.1N NaOH, and the solution made up to 100 ml with sterile water. For Group 5, 1.2 g Nadolol was dissolved in 50 ml 0.1M acetic acid and 30 ml sterile water. The pH was adjusted from 4.45 to 6.7 with 0.1N NaOH and the solution made up to 100 ml with sterile water. For Group 6: 1 g cellulose gum was dissolved in 50 ml 0.1N acetic acid and 30 ml de-ionized water. The volume was made up to 100 ml with sterile water. For Group 7, 600 mg Nadolol was dissolved in 50 ml 0.1M acetic acid and 30 ml sterile water. 1 g cellulose gum was added and dissolved into the solution and the solution made up to 100 ml with sterile water. For Group 8, 1.2 g Nadolol was dissolved in 50 ml 0.1M acetic acid and 30 ml sterile water. 1 g cellulose gum was added and dissolved into the solution and the solution made up to 100 ml with sterile water.
(Day −1) 84 Sprague-Dawley rats (male, 160-180 g each) were sorted into treatment groups based upon average body weight. The rats were weighed and food-deprived. The rats in groups 1-5 were dosed orally (PO) at 10 ml/kg with their respective solutions according to Table 2. The rats in Groups 6-8 were anesthetized intra-rectally (IR) instilled with 10 ml/kg of their respective treatment according to Table 2, the anus was pinched closed and the rat held inverted until recovered from anesthesia (at least 1 min).
After 24 hours (day 0), an aqueous solution of TNBS (2,4,6-trinitrobenzenesulfonic acid) 16 mg/ml in 50% ethanol was made and the rats were weighed and dosed as in TABLE 2. One hour later, the rats anesthetized and Groups 2-8 were intra-rectally instilled with 4 ml/kg TNBS solution (64 mg/kg), the anus was pinched closed and the rat held inverted until recovered from anesthesia (at least 1 min). Group 1 received de-ionized water. The rats were re-fed after recovery from TNBS instillation.
The rats were weighed and dosed as in TABLE 2 each day for the next six days (day 2-7), The rats were anesthetized and exsanguinated into pre-chilled serum separator tubes, the blood processed to serum which was stored in several aliquots at −80° C. A midline incision was made in the abdomen and the colon was evaluated for adhesions and stricture. The colon was removed and the length recorded. A midline incision was made the entire length of the colon, the contents removed and the colon weight and colon wall thickness recorded. A section of the colon was preserved in 20 volumes of 10% neutral buffered formalin. The end of the colon section at the rectal end of the section was edged with Evans Blue dye for orientation purposes. Another section of the colon was weighed and homogenized on an ice batch in 5 ml PBS. The homogenate was centrifuged and aliquots stored in labeled Eppendorf tubes at −80° C. The following parameters were used to determine colonic score: • Colonic Score Parameters • a) Adhesions: • 1) none=0 • 2) minimal=1 • 3) involving several bowel loops=2 • b) Strictures: • 1) none=0 • 2) mild=1 • 3) moderate=2 • 4) severe, proximal dilatation=3 • c) Ulcers: • 1) none=0 • 2) linear ulceration <1 cm=1 • 3) two linear ulcers <1 cm=2 • 4) more sites of ulceration or one large ulcer=3 • d) Wall thickness: • 1) less than 1 mm=0 • 2) 1-3 mm=1 • 3) >3 mm=2
The formalin-preserved colon samples were submitted for histological preparation and evaluation. […]

[2] = system: prophylactic TNBS rat colitis model; test: TNBS dose escalation study, colon histopathology (Example 4); format: in vivo, Sprague-Dawley (SD) rats; parameters: key to colon necrosis: no: 0=No necrosis; very minimal: 0.5=Very minimal, focal, affects <2% of the total colon; minimal: 1.0=Minimal focal or multifocal, affects 2-10% of the total colon; mild: 2.0=Mild, focal or multifocal, affects 11-25% of the total colon; moderate: 3.0=Moderate focal or multifocal, affects 26-50% of the total colon; marked: 4.0=Marked focal or multifocal, affects 51-75% of the total colon; severe: 5.0=Severe affects >75% of the total colon
Source text: Inflammation—neutrophil and macrophage infiltration predominantly, fibroplasia and neovascularization in areas of transmural necrosis 0=No inflammation 0.5=Very minimal focal infiltrates in mucosa only, affects <2% of the total colon 1.0=Minimal multifocal infiltrates in mucosa only, affects 2-10% of the total colon 2.0=Mild multifocal infiltrates affecting mucosa, submucosa, outer muscle layers and serosa, affects 11-25% of the total colon 3.0=Moderate multifocal infiltrates affecting mucosa, submucosa, outer muscle layers and serosa, affects 26-50% of the total colon 4.0=Marked multifocal to diffuse infiltrates affecting mucosa, submucosa, outer muscle layers and serosa, affects 51-75% of the total colon 5.0=Severe multifocal to diffuse infiltrates affecting mucosa, submucosa, outer muscle layers and serosa, affects >75% of the total colon. Necrosis—measure the total length of all colon sections, measure the total length of necrotic mucosa devoid of epithelium to determine % area affected 0=No necrosis 0.5=Very minimal, focal, affects <2% of the total colon 1.0=Minimal focal or multifocal, affects 2-10% of the total colon 2.0=Mild, focal or multifocal, affects 11-25% of the total colon 3.0=Moderate focal or multifocal, affects 26-50% of the total colon 4.0=Marked focal or multifocal, affects 51-75% of the total colon 5.0=Severe, affects >75% of the total colon Sprague-Dawley (SD) rats 118 (male, 180-200 g) were assigned to 11 groups of 10 or 12 rats per group so that each group has approximately the same mean weight. (Day −1) Initiate daily dosing of Groups 1-11 as in TABLE 1. Rats are deprived of food for 24 hours prior to disease initiation. 1) Intra-rectal (IR) administration is accomplished by briefly anesthetizing the rats, administering the test material at 10 ml/kg via a 20 gauge feeding needle inserted via the rectum, maintaining the rat in an inverted position with anus pinched shut until recovered from anesthesia. 2) Oral formulations are first dissolved in 0.05N acetic acid and pH adjusted to 6-7 with 0.1N NaOH. [table] (DAY 0) Prepare TNBS Solution (50% TNBS: 50% 200 proof ethanol; 16 mg/ml TNBS). Dose as in TABLE 3. After 1 hour, rats in Groups 2-11 are administered TNBS. Anesthetize rats and administer 64 mg/kg (4 ml/kg) TNBS Solution into colon of each rat, then re-feed rats. (DAY 7): Rats are weighed and dosed as in Table 3. […]. Terminal blood samples are collected from anesthetized rats. Samples are collected in pre-chilled-tubes and processed to serum. Store serum at −80° C. in several aliquots. A midline incision is made on each animal. Colon is removed and length measured and recorded. A longitudinal incision is made on each colon. Fecal material is gently washed away with saline. Excess fluid is gently blotted and colon weighed. The severity of IBD is assessed using the following scoring system: maximum score=10 • 1) Adhesions: • none=0 • minimal=1 • involving several bowel loops=2 • 2) Strictures: • none=0 • mild=1 • moderate=2 • severe, proximal dilatation=3 • 3) Ulcers: • none=0 • inear ulceration <1 cm=1 • two linear ulcers <1 cm=2 • more sites of ulceration or one large ulcer=3 • 4) Wall thickness: • less than 1 mm=0 • 1-3 mm=1 • >3 mm=2 A section of colon is preserved in 10 volumes of 10% neutral buffered formalin for histopathology. A section of colon is homogenized in PBS, centrifuged, and aliquots of the homogenate in labeled Eppendorf tubes are stored at −80° C. for cytokine analysis.

[3] = 10 mpk, FIG. 4c, animal with approximate mean summed score for the group
[4] = 60 mpk, FIG. 5c (route not given, IR by group order of Table 2)
[5] = 60 mpk, FIG. 4d (route not given, PO by group order of Table 2)
[6] = 120 mpk, FIG. 5a (route not given, PO by group order of Table 2)
[7] = 120 mpk, FIG. 5d (route not given, IR by group order of Table 2)

## C[C@]12C=CC(=O)C=C1CC[C@@H]1[C@@H]2[C@@H](O)C[C@@]2(C)[C@H]1CC[C@]2(O)C(=O)CO [prednisolone]
[1]; [3]
  colon inflammation: minimal (1.0=Minimal multifocal infiltrates in mucosa only, affects 2-10% of the total colon)
  colon necrosis: very minimal (0.5=Very minimal, focal, affects <2% of the total colon)
[2]; PO 10 mpk, FIG. 12c
  colon inflammation: minimal (1.0=Minimal multifocal infiltrates in mucosa only, affects 2-10% of the total colon)
  colon necrosis: minimal (1.0=Minimal focal or multifocal, affects 2-10% of the total colon)

## CC(C)(C)NCC(O)COc1cccc2c1CC(O)C(O)C2 (centres unmarked) [nadolol]
[1]; [4]
  colon inflammation: moderate (3.0=Moderate multifocal infiltrates affecting mucosa, submucosa, outer muscle layers and serosa, affects 26-50% of the total colon)
  colon necrosis: moderate (3.0=Moderate focal or multifocal, affects 26-50% of the total colon)
[1]; [5]
  colon inflammation: moderate (3.0=Moderate multifocal infiltrates affecting mucosa, submucosa, outer muscle layers and serosa, affects 26-50% of the total colon)
  colon necrosis: moderate (3.0=Moderate focal or multifocal, affects 26-50% of the total colon)
[1]; [6]
  colon inflammation: moderate (3.0=Moderate multifocal infiltrates affecting mucosa, submucosa, outer muscle layers and serosa, affects 26-50% of the total colon)
  colon necrosis: mild (2.0=Mild, focal or multifocal, affects 11-25% of the total colon)
[1]; [7]
  colon inflammation: mild (2.0=Mild multifocal infiltrates affecting mucosa, submucosa, outer muscle layers and serosa, affects 11-25% of the total colon)
  colon necrosis: mild (2.0=Mild, focal or multifocal, affects 11-25% of the total colon)
[2]; IR 6 mpk, FIG. 12i
  colon inflammation: mild (2.0=Mild multifocal infiltrates affecting mucosa, submucosa, outer muscle layers and serosa, affects 11-25% of the total colon)
  colon necrosis: no
[2]; IR 19 mpk, FIG. 12j
  colon inflammation: moderate (3.0=Moderate multifocal infiltrates affecting mucosa, submucosa, outer muscle layers and serosa, affects 26-50% of the total colon)
  colon necrosis: mild (2.0=Mild, focal or multifocal, affects 11-25% of the total colon)
[2]; IR 60 mpk, FIG. 12k
  colon inflammation: severe (5.0=Severe multifocal to diffuse infiltrates affecting mucosa, submucosa, outer muscle layers and serosa, affects >75% of the total colon)
  colon necrosis: severe (5.0=Severe affects >75% of the total colon)
[2]; PO 6 mpk, FIG. 12d
  colon inflammation: mild (2.0=Mild multifocal infiltrates affecting mucosa, submucosa, outer muscle layers and serosa, affects 11-25% of the total colon)
  colon necrosis: severe (5.0=Severe affects >75% of the total colon)
[2]; PO 19 mpk, FIG. 12e
  colon inflammation: marked (4.0=Marked multifocal to diffuse infiltrates affecting mucosa, submucosa, outer muscle layers and serosa, affects 51-75% of the total colon)
  colon necrosis: marked (4.0=Marked focal or multifocal, affects 51-75% of the total colon)
[2]; PO 60 mpk, FIG. 12f
  colon inflammation: severe (5.0=Severe multifocal to diffuse infiltrates affecting mucosa, submucosa, outer muscle layers and serosa, affects >75% of the total colon)
  colon necrosis: severe (5.0=Severe affects >75% of the total colon)
[2]; PO 120 mpk, FIG. 12g
  colon inflammation: mild (2.0=Mild multifocal infiltrates affecting mucosa, submucosa, outer muscle layers and serosa, affects 11-25% of the total colon)
  colon necrosis: no
